From patent US8546414B2, “Ion channel modulators and methods of use” (Vertex Pharmaceuticals Incorporated, priority 2004, dated 2013)

Tests used:
CaV2.2 = molecular target: T1, CaV2.2 (Homo sapiens, UniProt Q00975); experiment: VIPR optical membrane potential assay with electrical stimulation, CaV2.2; format: cell-based; settings: Table 9, CaV 2.2 receptors
T1 construct: expressed in transfected cells; host or cells: HEK293
Procedure: A. Optical Methods for Assaying CaV Inhibition Properties of Compounds:
(§1) Antagonist properties of test compounds were assessed as follows. Cells expressing the CaV of interest were placed into microtiter plates. After an incubation period, the cells were stained with fluorescent dyes sensitive to the transmembrane potential. The test compounds were added to the microtiter plate. The cells were stimulated with electrical means to evoke a CaV dependent membrane potential change from unblocked channels, which was detected and measured with trans-membrane potential-sensitive dyes. Antagonists were detected as a decreased membrane potential response to the stimulus.
(§2) VIPR® Optical Membrane Potential Assay Method with Electrical Stimulation
The following is an example of how CaV2.2 inhibition activity is measured using the optical membrane potential method. Other subtypes are performed in an analogous mode in a cell line expressing the CaV of interest.
HEK293 cells stably expressing CaV2.2 are plated into 96-well microtiter plates. After an appropriate incubation period, the cells are stained with the voltage sensitive dyes CC2-DMPE/DiSBAC2(3) as follows.
(§3) 2X CC2-DMPE=20 μM CC2-DMPE: 10 mM CC2-DMPE is vortexed with an equivalent volume of 10% Pluronic, followed by vortexing in required amount of HBSS containing 10 mM HEPES. Each cell plate will require 5 mL of 2×CC2-DMPE. 50 μL of 2×CC2-DMPE is added to wells containing washed cells, resulting in a 10 μM final staining concentration. The cells are stained for 30 minutes in the dark at RT.
Vortex in required amount of Bath X with beta-cyclodextrin. Each 96 well cell plate will require 5 ml of 2XCC2DMPE. Wash plate with ELx405 with Bath X, leaving a residual volume of 50 μL/well. Add 50 μL of 2XCC2DMPE & […] to each well. Stain for 30 minutes in the dark at RT.
Allow solution to sit for 10 minutes. Slowly mix in 370 mM BaCl2. This solution can be used to solvate compound plates. Note that compound plates are made at 1.5× drug concentration and not the usual 2X. Wash CC2 stained plate, again, leaving residual volume of 50 μL. Add 100 uL/well of the AY17 solution. Stain for 15 minutes in the dark at RT. Run plate on the optical reader.
(§4) The instrument comprises a microtiter plate handler, an optical system for exciting the coumarin dye while simultaneously recording the coumarin and oxonol emissions, a waveform generator, a current- or voltage-controlled amplifier, and a device for inserting electrodes in well. Under integrated computer control, this instrument passes user-programmed electrical stimulus protocols to cells within the wells of the microtiter plate.
Insert or use electrodes into each well to be assayed.
(§5) Use the current-controlled amplifier to deliver stimulation wave pulses for 3-5 s. Two seconds of pre-stimulus recording are performed to obtain the un-stimulated intensities. Five seconds of post-stimulation recording are performed to examine the relaxation to the resting state.
(§6) Data are analyzed and reported as normalized ratios of background-subtracted emission intensities measured in the 460 nm and 580 nm channels. Background intensities are then subtracted from each assay channel. Background intensities are obtained by measuring the emission intensities during the same time periods from identically treated assay wells in which there are no cells. The response as a function of time is then reported as the ratios obtained using the following formula: […]
(§7) The data is further reduced by calculating the initial (Ri) and final (Rf) ratios. These are the average ratio values during part or all of the pre-stimulation period, and during sample points during the stimulation period. The response to the stimulus R=Rf/Ri is then calculated.
Control responses are obtained by performing assays in the presence of a compound with the desired properties (positive control), such as mibefradil, and in the absence of pharmacological agents (negative control).

NaV1.3 = molecular target: T2, NaV1.3 (Homo sapiens, UniProt Q9NY46); experiment: VIPR optical membrane potential assay with electrical stimulation, NaV1.3; format: cell-based; settings: Table 9, NaV 1.3 receptors
T2 construct: expressed in transfected cells; host or cells: HEK293
Procedure: as §1, with “expressing the NaV of interest” for “expressing the CaV of interest”, “stimulated with either chemical or electrical means” for “stimulated with electrical means”, “evoke a NaV dependent membrane” for “evoke a CaV dependent membrane”
as §2
The following is an example of how NaV1.3 inhibition activity is measured using the optical membrane potential method#2. Other subtypes are performed in an analogous mode in a cell line expressing the NaV of interest.
HEK293 cells stably expressing NaV1.3 are plated into 96-well microtiter plates. After an appropriate incubation period, the cells are stained with the voltage sensitive dyes CC2-DMPE/DiSBAC2(3) as follows.
as §3, with “pluronic,” for “Pluronic,”
2X DISBAC2(3) with ABSC1=6 μM DISBAC2(3) and 1 mM ABSC1: The required amount of 10 mM DISBAC2(3) is added to a 50 ml conical tube and mixed with 1 μL 10% pluronic for each mL of solution to be made and vortexed together. Then HBSS/HEPES is added to make up 2× solution. Finally, the ABSC1 is added.
The 2X DiSBAC2(3) solution can be used to solvate compound plates. Note that compound plates are made at 2× drug concentration. Wash stained plate again, leaving residual volume of 50 Add 50 μL/well of the 2X DiSBAC2(3) w/ABSC1. Stain for 30 minutes in the dark at RT.
as §4
as §5, with “• 1. Insert or use electrodes into each well to be assayed. • 2. Use” for “Use”, “3” for “3-5”, “state. Data Analysis” for “state.”
as §6, §7
Control responses are obtained by performing assays in the presence of a compound with the desired properties (positive control), such as tetracaine, and in the absence of pharmacological agents (negative control). Responses to the negative (N) and positive (P) controls are calculated as above. The compound antagonist activity A is defined as: […]

T1 sequence (Q00975 whole entry): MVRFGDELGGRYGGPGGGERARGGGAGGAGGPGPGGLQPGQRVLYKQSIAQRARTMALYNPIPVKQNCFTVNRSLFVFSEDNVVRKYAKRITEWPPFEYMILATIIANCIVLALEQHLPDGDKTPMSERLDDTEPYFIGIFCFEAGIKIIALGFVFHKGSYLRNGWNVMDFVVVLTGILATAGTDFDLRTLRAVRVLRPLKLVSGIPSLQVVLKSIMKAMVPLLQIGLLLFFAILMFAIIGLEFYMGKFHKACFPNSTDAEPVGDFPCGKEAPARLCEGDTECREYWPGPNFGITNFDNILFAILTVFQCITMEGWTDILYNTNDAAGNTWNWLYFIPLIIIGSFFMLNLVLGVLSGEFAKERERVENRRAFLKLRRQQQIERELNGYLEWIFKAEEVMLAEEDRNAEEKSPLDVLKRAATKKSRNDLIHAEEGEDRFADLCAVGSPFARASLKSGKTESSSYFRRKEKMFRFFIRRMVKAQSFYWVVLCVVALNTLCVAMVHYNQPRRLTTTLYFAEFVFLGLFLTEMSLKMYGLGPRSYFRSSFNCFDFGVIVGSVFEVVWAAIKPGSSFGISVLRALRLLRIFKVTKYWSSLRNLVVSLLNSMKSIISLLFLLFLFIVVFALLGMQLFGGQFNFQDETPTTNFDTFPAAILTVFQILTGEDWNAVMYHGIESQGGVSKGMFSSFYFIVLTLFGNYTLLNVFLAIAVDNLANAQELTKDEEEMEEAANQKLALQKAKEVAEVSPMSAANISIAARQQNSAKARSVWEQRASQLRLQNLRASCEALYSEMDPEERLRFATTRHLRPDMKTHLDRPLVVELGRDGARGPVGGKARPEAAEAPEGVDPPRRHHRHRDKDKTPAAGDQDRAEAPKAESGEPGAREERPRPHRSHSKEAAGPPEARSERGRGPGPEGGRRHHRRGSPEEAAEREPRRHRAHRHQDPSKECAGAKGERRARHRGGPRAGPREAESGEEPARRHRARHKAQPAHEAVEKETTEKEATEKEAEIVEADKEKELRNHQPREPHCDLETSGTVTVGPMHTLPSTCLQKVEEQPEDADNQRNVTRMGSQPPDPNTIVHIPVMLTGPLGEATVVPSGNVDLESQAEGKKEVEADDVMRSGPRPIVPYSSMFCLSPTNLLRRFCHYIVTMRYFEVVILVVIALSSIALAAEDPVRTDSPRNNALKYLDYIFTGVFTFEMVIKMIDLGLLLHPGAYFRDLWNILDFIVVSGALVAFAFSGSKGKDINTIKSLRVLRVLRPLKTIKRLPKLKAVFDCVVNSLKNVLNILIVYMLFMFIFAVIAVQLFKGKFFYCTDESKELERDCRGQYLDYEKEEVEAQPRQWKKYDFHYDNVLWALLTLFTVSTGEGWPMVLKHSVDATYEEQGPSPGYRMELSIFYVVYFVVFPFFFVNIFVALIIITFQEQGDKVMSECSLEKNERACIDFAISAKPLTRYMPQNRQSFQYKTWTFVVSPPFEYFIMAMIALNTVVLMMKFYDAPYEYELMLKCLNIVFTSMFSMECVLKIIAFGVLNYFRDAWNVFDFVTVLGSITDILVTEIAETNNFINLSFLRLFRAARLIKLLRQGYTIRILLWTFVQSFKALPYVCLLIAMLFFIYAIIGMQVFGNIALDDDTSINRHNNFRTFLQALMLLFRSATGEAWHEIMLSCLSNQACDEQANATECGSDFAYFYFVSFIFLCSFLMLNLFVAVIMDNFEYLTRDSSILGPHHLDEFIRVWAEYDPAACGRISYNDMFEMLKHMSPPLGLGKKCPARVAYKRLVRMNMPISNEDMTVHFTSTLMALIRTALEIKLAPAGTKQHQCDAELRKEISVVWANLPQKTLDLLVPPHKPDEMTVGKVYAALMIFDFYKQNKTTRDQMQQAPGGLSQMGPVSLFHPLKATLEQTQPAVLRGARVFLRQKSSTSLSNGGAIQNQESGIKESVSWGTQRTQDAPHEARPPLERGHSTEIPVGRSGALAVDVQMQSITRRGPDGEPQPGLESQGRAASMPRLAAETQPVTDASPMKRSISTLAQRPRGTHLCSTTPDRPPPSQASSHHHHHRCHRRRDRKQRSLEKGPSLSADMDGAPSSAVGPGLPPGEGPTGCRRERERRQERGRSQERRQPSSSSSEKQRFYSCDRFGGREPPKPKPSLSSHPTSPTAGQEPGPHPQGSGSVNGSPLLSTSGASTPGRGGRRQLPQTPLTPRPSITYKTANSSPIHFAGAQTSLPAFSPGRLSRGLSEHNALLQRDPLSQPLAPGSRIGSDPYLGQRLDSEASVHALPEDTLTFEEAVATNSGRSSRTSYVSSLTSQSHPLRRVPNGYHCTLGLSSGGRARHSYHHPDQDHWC
T1 sequence (P54284 whole entry partner): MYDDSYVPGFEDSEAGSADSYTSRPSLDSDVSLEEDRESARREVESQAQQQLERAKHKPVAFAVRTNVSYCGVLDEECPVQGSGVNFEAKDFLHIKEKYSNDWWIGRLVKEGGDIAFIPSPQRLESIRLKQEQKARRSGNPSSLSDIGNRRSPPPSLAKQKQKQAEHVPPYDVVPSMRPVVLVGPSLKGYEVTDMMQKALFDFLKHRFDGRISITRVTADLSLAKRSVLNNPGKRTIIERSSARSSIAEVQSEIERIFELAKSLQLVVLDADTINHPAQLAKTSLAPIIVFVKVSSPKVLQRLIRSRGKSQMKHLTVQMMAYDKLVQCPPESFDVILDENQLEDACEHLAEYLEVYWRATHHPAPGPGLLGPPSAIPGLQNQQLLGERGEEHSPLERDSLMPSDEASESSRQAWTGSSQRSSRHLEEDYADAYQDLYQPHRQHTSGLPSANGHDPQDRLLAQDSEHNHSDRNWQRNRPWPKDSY
T1 sequence (P54289 25-956 partner limits assumed): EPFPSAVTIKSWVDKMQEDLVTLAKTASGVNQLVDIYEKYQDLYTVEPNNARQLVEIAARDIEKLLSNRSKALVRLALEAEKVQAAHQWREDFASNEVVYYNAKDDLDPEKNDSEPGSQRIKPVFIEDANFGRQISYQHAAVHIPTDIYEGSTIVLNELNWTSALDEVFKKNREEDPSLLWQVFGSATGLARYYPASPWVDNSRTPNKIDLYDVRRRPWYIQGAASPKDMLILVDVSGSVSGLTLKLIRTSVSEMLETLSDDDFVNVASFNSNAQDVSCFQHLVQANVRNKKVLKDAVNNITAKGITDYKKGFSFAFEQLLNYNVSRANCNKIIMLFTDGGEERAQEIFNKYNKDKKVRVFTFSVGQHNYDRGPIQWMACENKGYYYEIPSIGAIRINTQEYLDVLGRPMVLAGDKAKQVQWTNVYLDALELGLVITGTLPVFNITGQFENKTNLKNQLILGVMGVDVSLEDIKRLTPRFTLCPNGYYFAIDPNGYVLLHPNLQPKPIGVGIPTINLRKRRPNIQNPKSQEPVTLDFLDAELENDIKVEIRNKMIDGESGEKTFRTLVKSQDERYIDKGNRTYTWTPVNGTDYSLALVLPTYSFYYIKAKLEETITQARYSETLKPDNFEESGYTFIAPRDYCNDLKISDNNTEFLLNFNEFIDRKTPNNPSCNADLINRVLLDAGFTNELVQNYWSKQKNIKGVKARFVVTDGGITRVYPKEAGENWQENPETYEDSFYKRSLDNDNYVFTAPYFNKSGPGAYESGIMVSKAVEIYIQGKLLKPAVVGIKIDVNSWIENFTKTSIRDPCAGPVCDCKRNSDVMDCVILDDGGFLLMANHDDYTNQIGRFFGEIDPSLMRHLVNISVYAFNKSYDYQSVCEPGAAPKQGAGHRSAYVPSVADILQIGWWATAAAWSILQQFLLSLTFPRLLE
T1 sequence (P54289 957-1103 partner limits assumed): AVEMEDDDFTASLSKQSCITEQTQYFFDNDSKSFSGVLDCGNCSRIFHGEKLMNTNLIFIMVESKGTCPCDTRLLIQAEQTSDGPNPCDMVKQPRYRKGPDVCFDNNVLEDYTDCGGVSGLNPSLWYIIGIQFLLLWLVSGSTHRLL

CCN(Cc1ccccc1)C(=O)c1cnc(N2CCOCC2)nc1-c1ccc(C#N)cc1 [compound 313]
IC50 (CaV2.2): > 10 µM | IC50 (NaV1.3): > 10 µM

CCC(C)NC(=O)c1cnc(N(C)CC(C)C)nc1-c1ccc(C#N)cc1 (stereo not drawn) [compound 230]
IC50 (CaV2.2): > 10 µM | IC50 (NaV1.3): > 10 µM

COc1ccccc1CCNC(=O)c1cnc(N2CCOCC2)nc1-c1ccccc1F [compound 302]
IC50 (CaV2.2): > 10 µM | IC50 (NaV1.3): > 10 µM

COCCCNC(=O)c1cnc(N2CCOCC2)nc1-c1ccccc1F [compound 324]
IC50 (CaV2.2): > 10 µM | IC50 (NaV1.3): > 10 µM

CCN(Cc1cccc(C)c1)C(=O)c1cnc(NCCCOC)nc1-c1ccccc1F [compound 268]
IC50 (CaV2.2): > 10 µM | IC50 (NaV1.3): > 10 µM

CC(=O)N1CCN(c2ncc(C(=O)N3CCCCC3)c(-c3ccc(C#N)cc3)n2)CC1 [compound 267]
IC50 (CaV2.2): > 10 µM | IC50 (NaV1.3): > 10 µM

CC(=O)NCCNc1ncc(C(=O)N(Cc2ccccc2)C(C)C)c(-c2ccccc2F)n1 [compound 291]
IC50 (CaV2.2): > 10 µM | IC50 (NaV1.3): > 10 µM

CCN(Cc1ccccc1)C(=O)c1cnc(NCc2ccc3c(c2)OCO3)nc1-c1ccc(C#N)cc1 [compound 269]
IC50 (CaV2.2): > 10 µM | IC50 (NaV1.3): > 10 µM

CCN(Cc1ccccc1)C(=O)c1cnc(N2CCOCC2)nc1-c1cccc(C)c1 [compound 243]
IC50 (CaV2.2): > 10 µM | IC50 (NaV1.3): > 10 µM

COc1cccc(OC)c1CNc1ncc(C(=O)N(C)CC(C)C)c(-c2ccccc2F)n1 [compound 255]
IC50 (CaV2.2): > 10 µM | IC50 (NaV1.3): > 10 µM

CCN(Cc1ccccc1)C(=O)c1cnc(N2CCCC(C(N)=O)C2)nc1-c1ccc(C#N)cc1 (stereo not drawn) [compound 259]
IC50 (CaV2.2): > 10 µM | IC50 (NaV1.3): > 10 µM

COc1ccc(CCN(C)c2ncc(C(=O)N(C)CC(C)C)c(-c3ccc(C#N)cc3)n2)cc1OC [compound 271]
IC50 (CaV2.2): > 10 µM | IC50 (NaV1.3): > 10 µM

CC(C)CN(C)C(=O)c1cnc(NCc2ccc3c(c2)OCO3)nc1-c1ccc(C#N)cc1 [compound 263]
IC50 (CaV2.2): 2 to 10 µM | IC50 (NaV1.3): > 10 µM

CC(C)N(Cc1ccccc1)C(=O)c1cnc(N2CCOCC2)nc1-c1ccc(C#N)cc1 [compound 232]
IC50 (CaV2.2): 2 to 10 µM | IC50 (NaV1.3): > 10 µM

CCN(Cc1cccc(C)c1)C(=O)c1cnc(N2CCOCC2)nc1-c1cccc(C)c1 [compound 266]
IC50 (CaV2.2): > 10 µM | IC50 (NaV1.3): > 10 µM

COCCNc1ncc(C(=O)N(CC(C)C)CC(C)C)c(-c2cccc(C)c2)n1 [compound 348]
IC50 (CaV2.2): > 10 µM | IC50 (NaV1.3): > 10 µM

CCOCCN(CCOCC)C(=O)c1cnc(N2CCOCC2)nc1-c1ccccc1F [compound 315]
IC50 (CaV2.2): > 10 µM

CCCCNC(=O)c1cnc(N2CCOCC2)nc1-c1ccccc1F [compound 233]
IC50 (CaV2.2): > 10 µM | IC50 (NaV1.3): > 10 µM

CC(=O)N1CCN(c2ncc(C(=O)N(C)CC(C)C)c(-c3ccc(-c4ccccc4)cc3)n2)CC1 [compound 225]
IC50 (CaV2.2): 2 to 10 µM | IC50 (NaV1.3): > 10 µM

CCN(Cc1ccccc1)C(=O)c1cnc(N2CCOCC2)nc1-c1ccccc1F [compound 350]
IC50 (CaV2.2): > 10 µM | IC50 (NaV1.3): > 10 µM

CC(C)CN(C)C(=O)c1cnc(NCCc2cccc(F)c2)nc1-c1ccc(C#N)cc1 [compound 295]
IC50 (CaV2.2): 2 to 10 µM | IC50 (NaV1.3): > 10 µM

CCN(Cc1cccc(C)c1)C(=O)c1cnc(NCCNC(C)=O)nc1-c1ccccc1F [compound 308]
IC50 (CaV2.2): > 10 µM | IC50 (NaV1.3): > 10 µM

CCN(Cc1cccc(C)c1)C(=O)c1cnc(N2CCCC2)nc1-c1ccccc1F [compound 335]
IC50 (CaV2.2): 2 to 10 µM

O=C(c1cnc(N2CCOCC2)nc1-c1ccccc1F)N1CCCCC1 [compound 323]
IC50 (CaV2.2): > 10 µM | IC50 (NaV1.3): > 10 µM

Cc1ccc(CNc2ncc(C(=O)N3CCC(C)CC3)c(-c3ccc(C#N)cc3)n2)o1 [compound 261]
IC50 (CaV2.2): > 10 µM | IC50 (NaV1.3): > 10 µM

O=C(c1cnc(N2CCOCC2)nc1-c1ccccc1F)N1CCOCC1 [compound 275]
IC50 (CaV2.2): > 10 µM

CC1CCCCC1NC(=O)c1cnc(N2CCOCC2)nc1-c1ccccc1F (stereo not drawn) [compound 254]
IC50 (CaV2.2): > 10 µM

CCCCNC(=O)c1cnc(NCCCC)nc1-c1cccc(C)c1 [compound 214]
IC50 (CaV2.2): > 10 µM

CC(C)CN(C)C(=O)c1cnc(N2CCOCC2)nc1-c1ccccc1F [compound 215]
IC50 (CaV2.2): > 10 µM

CCN(Cc1ccccc1)C(=O)c1cnc(NC2CCCC2)nc1-c1ccccc1F [compound 311]
IC50 (CaV2.2): > 10 µM

CCC(C)NC(=O)c1cnc(N2CCOCC2)nc1-c1ccccc1F (stereo not drawn) [compound 213]
IC50 (CaV2.2): > 10 µM

Cc1nc(N2CCOCC2)nc(-c2ccccc2F)c1C(=O)N(Cc1ccccc1)C(C)C [compound 338, N-benzyl-4-(2-fluorophenyl)-N-isopropyl-6-methyl-2-morpholinopyrimidine-5-carboxamide]
IC50 (CaV2.2): > 10 µM

O=C(c1cnc(N2CCOCC2)nc1-c1ccccc1F)N1CCCC1 [compound 250]
IC50 (CaV2.2): > 10 µM

O=C(NCC1CCCCC1)c1cnc(N2CCOCC2)nc1-c1ccccc1F [compound 328]
IC50 (CaV2.2): > 10 µM

CC1CCN(C(=O)c2cnc(NCc3ccccc3C(F)(F)F)nc2-c2ccc(C#N)cc2)CC1 [compound 221]
IC50 (CaV2.2): > 10 µM

Cc1cccc(-c2nc(NCc3cccc(Cl)c3)ncc2C(=O)N2CCOCC2)c1 [compound 318]
IC50 (CaV2.2): > 10 µM

O=C(NCC1CC1)c1cnc(N2CCOCC2)nc1-c1ccccc1F [compound 212]
IC50 (CaV2.2): > 10 µM

CCN(C)C(=O)c1cnc(NCCc2ccc(OC)cc2)nc1-c1cccc(C)c1 [compound 234]
IC50 (CaV2.2): > 10 µM

CCN(C)c1ncc(C(=O)N(Cc2ccccc2)C(C)C)c(-c2ccccc2F)n1 [compound 312]
IC50 (CaV2.2): 2 to 10 µM

CN(C(=O)c1cnc(N2CCOCC2)nc1-c1ccccc1F)C1CCCCC1 [compound 283]
IC50 (CaV2.2): > 10 µM

N#Cc1ccc(-c2nc(N3CCOCC3)ncc2C(=O)NCc2ccccc2C(F)(F)F)cc1 [compound 287]
IC50 (CaV2.2): > 10 µM

N#Cc1ccc(-c2nc(NCCc3cccc(F)c3)ncc2C(=O)NCc2ccccc2)cc1 [compound 249]
IC50 (CaV2.2): > 10 µM

CC(=O)N1CCN(c2ncc(C(=O)N3CCCCC3)c(-c3ccc(-c4ccccc4)cc3)n2)CC1 [compound 278]
IC50 (CaV2.2): 2 to 10 µM
